According to US20050209295A1, “Methimazole derivatives and tautomeric cyclic thiones to inhibit cell adhesion” (priority 2004, published 2005):

Tests used:
Format in all cases: cell-based, human
NF-κB = assay: EMSA of TNF-α induced NF-κB binding activity to VCAM-1 promoter; settings: 0.5 mM; 2 hr. TNF-α; HAEC nuclear extract
Procedure: Nuclear Extracts and EMSA: Nuclear extracts are prepared from harvested HAEC using NE-PER® extraction reagents (Pierce Chemical Co.; Rockford, Ill.) in the presence of a protease inhibitor cocktail (PMSF, Leupeptin, Pepstatin-A). Oligonucleotides (Biosynthesis Inc.; Lewisville, Tex.) are annealed and precipitated double stranded oligonucleotides end labeled with γ-^32P-ATP using T4 polynucleotide kinase enzyme. Binding reactions (20 min., room temperature) included ^32P-labeled probe (activity 100,000 cpm), 3-6 μg HAEC nuclear extract, 1 μg poly(dI-dC), 1 mM DTT, 10% glycerol and 1× binding buffer. Binding buffer (10×) for NF-κB EMSA is 200 mM HEPES-KOH (pH7.9), 340 mM KCl, 50 mM MgCl2, 5 mM EDTA (pH 8.0), 1% Triton X-100. Binding buffer (10×) for IRF-1 EMSA is 100 mM Tris-HCL (pH 7.5), 500 mM NaCl, 50 mM MgCl2, 10 mM EDTA (pH 8.0). In competition studies, nuclear extracts are incubated with 100 fold molar excess of unlabeled double stranded oligonucleotide. In supershift studies, nuclear extracts are incubated with 2 μg of appropriate antibodies. After the incubations, reaction mixtures are electrophoresed (160V, room temperature) on 5% non-denaturing polyacrylamide gels containing 5% glycerol in 1×TBE (50 mM Tris, 50 mM boric acid, and 1 mM EDTA). Gels are dried and autoradiographed. Each experiment is replicated at least twice. […]

VCAM-1 [1] = assay: TNF-alpha-induced VCAM-1 RNA levels in aortic endothelial cells (Northern blot); settings: for % INHIBITION of TNF-alpha-induced VCAM-1 RNA levels: aortic endothelial cells, mean ± SD
Procedure: (§1) Cell culture and treatment of HAEC: Human aortic endothelial cells (HAEC; Cambrex Bio Science Walkersville, Inc., Walkersville, Md.) are cultured in M199 supplemented with 8% FBS, 100 μg/ml heparin, 10 ng/ml endothelial growth factor, 100 μg/ml hypothalamus extract, 2 mM L-glutamine, 1% non-essential amino acids, 100 units/ml penicillin and 100 μg/ml streptomycin. HAEC are subcultured on gelatin pre-coated: 96-well tissue culture plates (Corning Incorporated; Corning, N.Y.) for viability assays and ELISA; 100-mm tissue culture dishes (BD Falcon; Franklin Lakes, N.J.) for Northern blot analyses, Western blot analyses and EMSA; 35-mm tissue culture dishes (Corning) for adhesion assays and on 24-well tissue culture plates for luciferase promoter assays (BD Falcon). All experiments are performed with confluent HAEC monolayers. Unless noted otherwise, HAEC are treated with 25 ng/ml TNF-α, in the absence or presence of C-10 or 0.25% DMSO (carrier control for C-10), for 2-24 hrs. The concentration of DMSO is held constant at 0.25% (unless indicated otherwise) for all of the C-10 conditions.
HAEC are washed with PBS and total RNA extracted using a commercial kit (RNeasy Mini Kit; Qiagen Inc.; Valencia, Calif.). 12 μg of total RNA per lane is resolved on 1% denaturing agarose gels containing 0.66M formaldehyde. Gels are capillary blotted on Nytran membranes (Schleicher and Schuell Inc.; Keene, N.H.), UV cross-linked, and used for hybridization. The probe for IRF-1 has been previously described (33). The G3PDH cDNA is from Clontech (Palo Alto, Calif.). […]; cDNAs are labeled with α-^32P-dCTP using the Ladderman Labeling Kit (Takara Biochemical Inc.; Berkeley, Calif.) (33). Northern blots are developed using a BAS 1500 Bioimaging Analyzer (Fuji Photo Film Co., Ltd. Medical Systems USA Inc.; Stanford, Calif.). Each experiment is replicated at least twice.

VCAM-1 [2] = assay: ELISA of TNF-α induced VCAM-1 protein on HAEC
Procedure: as §1
HAEC are washed with cold HBSS+, fixed in 1% formaldehyde at 4° C. for 20 min., washed with cold HBSS+, and incubated in cold M199 containing 8% FBS. Unless otherwise noted, from this point on all antibody dilutions and washes are carried out with M199 containing 8% FBS. Murine mAbs (primary mAbs) to ECAMs are added (10 μg/ml) and the HAEC incubated at 4° C. for 20 min. Following the incubation, the wells are washed and a peroxidase conjugated polyclonal (secondary) antibody to mouse IgG is added (diluted 1:50). After a 20 min. incubation at 4° C., the wells are washed and treated with OPD dissolved in phosphate citrate buffer containing sodium perborate. Following a 10 min. incubation at room temperature, the absorbance of the fluid in each well is determined at 450 nm using a micro-well plate spectrophotometer (Molecular Devices; Sunnyvale, Calif.). In every experiment, each condition is run in triplicate wells.

ICAM-1 = assay: TNF-α induced ICAM-1 mRNA in HAEC (Northern blot)
Procedure: as §1
(§2) HAEC are washed with PBS and total RNA extracted using a commercial kit (RNeasy Mini Kit; Qiagen Inc.; Valencia, Calif.). 12 μg of total RNA per lane is resolved on 1% denaturing agarose gels containing 0.66M formaldehyde. […]

E-selectin = assay: TNF-α induced E-selectin mRNA in HAEC (Northern blot)
Procedure: as §1, §2

HAEC = HAEC viability (MTS assay and visual inspection); settings: concentrations used in this study
Procedure: as §1

Cn1c(-c2ccccc2)cnc1S [5-Phenylmethimazole]
effect on TNF-α dependent NF-κB complex formation (EMSA) (NF-κB): no effect
% INHIBITION of TNF-alpha-induced VCAM-1 RNA levels (VCAM-1 [1]; 5.0 mM): 99 ± 3%
% INHIBITION of TNF-alpha-induced VCAM-1 RNA levels (VCAM-1 [1]; 10 :M): 75 ± 7%
% INHIBITION of TNF-alpha-induced VCAM-1 RNA levels (VCAM-1 [1]; 100 :M): 99 ± 4%
effect on TNF-α induced VCAM-1 mRNA expression (VCAM-1 [1]; 2 hr. TNF-α, HAEC, Northern blot): reduced, in a dose-dependent manner
effect on TNF-α induced VCAM-1 mRNA (VCAM-1 [1]; 24 hr. TNF-α, HAEC, Northern blot): reduced, in a dose dependent manner
concentration at which significant reduction of TNF-α induced VCAM-1 protein expression is observed (VCAM-1 [2]; 4 hr. TNF-α): ≥ 0.25 mM
effect on TNF-α induced protein expression of VCAM-1 (VCAM-1 [2]; 4 hr. TNF-α): significantly reduces
concentration at which significant reduction of TNF-α induced VCAM-1 protein expression is observed (VCAM-1 [2]; 24 hr. TNF-α): ≥ 0.05 mM
effect on TNF-α induced protein expression of VCAM-1 (VCAM-1 [2]; 24 hr. TNF-α): significantly reduces
effect on TNF-α induced ICAM-1 mRNA expression (ICAM-1; 2 hr. TNF-α): no effect
effect on TNF-α induced ICAM-1 mRNA expression (ICAM-1; 24 hr. TNF-α): little to no effect
effect on TNF-α induced E-selectin mRNA expression (E-selectin; 2 hr. TNF-α): marginal effect
effect on TNF-α induced E-selectin mRNA (E-selectin; 24 hr. TNF-α): reduced, in a dose dependent manner
effect on HAEC viability (HAEC): little to no effect
